Measurements from patent publication US20130029923A1, “Materials and Methods for Prevention and Treatment of Viral Infections” (priority 2009, published 2013).

System: influenza virus H1N1 (A/Victoria/07159200/07), oseltamivir-resistant strain
Assay type: cell-based, human influenza virus

C[C@@H]1O[C@@H](OC[C@H]2O[C@@H](OCCc3ccc(O)c(O)c3)[C@H](O)[C@@H](O)[C@@H]2OC(=O)/C=C/c2ccc(O)c(O)c2)[C@H](O)[C@H](O)[C@H]1O [Compound A1, forsythoside A]
suppression of virus replication (TCID50) compared with DMSO-treated cells: ~3 fold
